Measured values as given in US7183276B2, “Azole compounds” (Takeda Pharmaceutical Company Limited, priority 2002, dated 2007).

| melting point | Structure (SMILES) |
| --- | --- |
| 255 to 256 °C | NS(=O)(=O)c1ccc(CNC(=O)CCc2oc(-n3cnc4ccccc43)nc2-c2ccc(Cl)cc2)cc1 [Example 151, N-[4-(aminosulfonyl)benzyl]-3-[2-(1H-benzimidazol-1-yl)-4-(4-chlorophenyl)-5-oxazolyl]propionamide] |
| 171 to 172 °C | CCOP(=O)(OCC)C(O)c1ccc(NC(=O)CCc2oc(-n3cnc4ccccc43)nc2-c2ccc(Cl)cc2)cc1 (centres unmarked) |
| 146 to 147 °C | CCOP(=O)(Cc1ccc(NC(=O)CCc2oc(Sc3ncccn3)nc2-c2ccc(Cl)cc2)cc1)OCC |
| 207 to 208 °C | CN(C)C(=O)Cc1ccc(NC(=O)CCc2oc(-n3cnc4ccccc43)nc2-c2ccc(Cl)cc2)cc1 [Example 142, 2-[4-({3-[2-(1H-benzimidazol-1-yl)-4-(4-chlorophenyl)-5-oxazolyl]propanoyl}amino)phenyl]-N,N-dimethylacetamide] |
| 174 to 175 °C | O=C(CCc1oc(-n2cnc3ccccc32)nc1-c1ccc(Cl)cc1)Nc1ccc(OC(F)(F)F)cc1 [Example 122, 3-[2-(1H-benzimidazol-1-yl)-4-(4-chlorophenyl)-5-oxazolyl]-N-[4-(trifluoromethoxy)phenyl]propionamide] |
| 148 to 149 °C | CCOP(=O)(Cc1ccc(NC(=O)CCc2oc(-n3cnc4ccccc43)nc2-c2ccccc2)cc1)OCC |
| 204 to 206 °C | CCOP(=O)(Cc1ccc(NC(=O)/C=C/c2oc(-c3ccccc3)nc2-c2ccc(Cl)cc2)cc1)OCC |
| 223 to 225 °C | O=C(CCc1oc(-c2ccccc2)nc1-c1ccc(Cl)cc1)Nc1ccc(CN2CCCCC2)cc1 [Example 95, 3-[4-(4-chlorophenyl)-2-phenyl-5-oxazolyl]-N-{4-[(1-piperidinyl)methyl]phenyl}propionamide] |
| 194 to 195 °C | O=C(CCc1oc(-n2cnc3ccccc32)nc1-c1ccc(Cl)cc1)NCc1ccc(C(F)(F)F)cc1 [Example 138, 3-[2-(1H-benzimidazol-1-yl)-4-(4-chlorophenyl)-5-oxazolyl]-N-[4-(trifluoromethyl)benzyl]propionamide] |
| 210 to 212 °C | COc1ccc(CNC(=O)CCc2oc(-n3cnc4ccccc43)nc2-c2ccc(Cl)cc2)cc1 [Example 145, 3-[2-(1H-benzimidazol-1-yl)-4-(4-chlorophenyl)-5-oxazolyl]-N-(4-methoxybenzyl)propionamide] |
| 197 to 198 °C | O=C(CCc1oc(-n2cnc3ccccc32)nc1-c1ccc(Cl)cc1)NCc1cc(F)ccc1F [Example 158, 3-[2-(1H-benzimidazol-1-yl)-4-(4-chlorophenyl)-5-oxazolyl]-N-(2,5-difluorobenzyl)propionamide] |
| 226 to 227 °C | NC(=O)CCc1oc(-c2cccs2)nc1-c1ccc(Cl)cc1 [Example 25, 3-[4-(4-chlorophenyl)-2-(2-thienyl)-5-oxazolyl]propionamide] |
| 144 to 145 °C | CCOP(=O)(Cc1ccc(NC(=O)CCc2sc(NC(=O)NCc3ccccc3)nc2-c2ccc(Cl)cc2)cc1)OCC |
| 153 to 154 °C | COc1ccccc1NC(=O)CCc1oc(-n2ccnc2C)nc1-c1ccc(Cl)cc1 [Example 71, 3-[4-(4-chlorophenyl)-2-(2-methyl-1-imidazolyl)-5-oxazolyl]-N-(2-methoxyphenyl)propionamide] |
| 220 to 222 °C | Nc1nc(-c2ccc(Cl)cc2)c(CCC(=O)N2CCS(=O)(=O)CC2)s1 [Example 227B, 4-{3-[2-amino-4-(4-chlorophenyl)-5-thiazolyl]propanoyl}thiomorpholine-1,1-dioxide] |
| 210 to 212 °C | Cc1ccc(CNC(=O)CCc2oc(-n3cnc4ccccc43)nc2-c2ccc(Cl)cc2)cc1 [Example 146, 3-[2-(1H-benzimidazol-1-yl)-4-(4-chlorophenyl)-5-oxazolyl]-N-(4-methylbenzyl)propionamide] |
| 188 to 189 °C | O=C(CCc1sc(-n2cnc3ccccc32)nc1-c1ccc(Cl)cc1)NCc1cc(Br)ccc1F [Example 202, 3-[2-(1H-benzimidazol-1-yl)-4-(4-chlorophenyl)-5-thiazolyl]-N-(5-bromo-2-fluorobenzyl)propionamide] |
